Assay [1] deals with T1, WRN [UniPro: Q14191 (WRN_HUMAN), N500-C946] (Homo sapiens (Human), UniProt Q14191). The experiment in a line: WRN unwinding assay (FORKF DNA, fluorescence). The assay is classed as biochemical. To be noted: Table 14.
The target of assay [2] is T1, WRN [UniPro: Q14191 (WRN_HUMAN), N500-C946]. The experiment in a line: WRN ATPase assay (ADP-Glo). Conditions: WRN enzymatic activity assay. The assay is classed as biochemical. (In general: ADP-Glo first removes unused ATP, then detects ADP through luciferase.)

This note sets out measurements from US20260015358A1, “BICYCLIC DERIVATIVES, COMPOSITIONS AND USES THEREOF” (Danatlas Pharmaceuticals Co., Ltd., priority 2023, published 2026).

SMILES strings stand for the structures.

T1 sequence (Q14191 500-946): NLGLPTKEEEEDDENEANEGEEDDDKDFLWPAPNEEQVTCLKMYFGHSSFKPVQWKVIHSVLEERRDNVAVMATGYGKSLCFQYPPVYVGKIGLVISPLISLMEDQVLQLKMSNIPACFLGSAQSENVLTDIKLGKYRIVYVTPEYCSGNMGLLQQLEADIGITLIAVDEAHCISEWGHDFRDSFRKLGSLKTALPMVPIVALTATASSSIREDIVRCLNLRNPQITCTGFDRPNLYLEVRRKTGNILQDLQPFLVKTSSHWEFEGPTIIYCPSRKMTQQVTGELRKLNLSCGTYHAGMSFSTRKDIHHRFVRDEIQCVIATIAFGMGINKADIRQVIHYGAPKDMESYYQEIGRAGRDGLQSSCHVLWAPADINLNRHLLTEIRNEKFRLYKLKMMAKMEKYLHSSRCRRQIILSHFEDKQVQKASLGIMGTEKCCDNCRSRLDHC

Regarding `CCc1c(N2CCN(C(=O)c3c(O)nn4c(Cl)cccc34)CC2)c(=O)n2nc(C3=CCOCC3)nc2n1CC(=O)Nc1ccc(C(F)(F)F)cc1Cl` [Example 198, 2-(6-(4-(7-Chloro-2-hydroxypyrazolo[1,5-a]pyridine-3-carbonyl)piperazin-1-yl)-2-(3,6-dihydro-2H-pyran-4-yl)-5-ethyl-7-oxo-[1,2,4]triazolo[1,5-a]pyrimidin-4(7H)-yl)-N-(2-chloro-4-(trifluoromethyl)phenyl)acetamide], the half-maximal inhibitory concentration (IC50) in assay [1] and in assay [2] was less than 100 nM each time.

Regarding `CCc1c(N2CCN(C(=O)c3ncc4nc(Cl)sc4c3O)CC2)c(=O)n2nc(C3=CCOCC3)nc2n1CC(=O)Nc1ccc(C(F)(F)F)cc1F` [Example 199, 2-(6-(4-(2-Chloro-7-hydroxythiazolo[4,5-c]pyridine-6-carbonyl)piperazin-1-yl)-2-(3,6-dihydro-2H-pyran-4-yl)-5-ethyl-7-oxo-[1,2,4]triazolo[1,5-a]pyrimidin-4(7H)-yl)-N-(2-fluoro-4-(trifluoromethyl)phenyl)acetamide], the IC50 in assay [1] and in assay [2] was less than 100 nM throughout.

Consider `CCc1c(N2CCN(C(=O)c3ccn4nccc4c3O)CC2)c(=O)n2nc(C3=CCOCC3)nc2n1CC(=O)Nc1ccc(C(F)(F)F)cc1Cl` [Example 200, N-(2-Chloro-4-(trifluoromethyl)phenyl)-2-(2-(3,6-dihydro-2H-pyran-4-yl)-5-ethyl-6-(4-(4-hydroxypyrazolo[1,5-a]pyridine-5-carbonyl)piperazin-1-yl)-7-oxo-[1,2,4]triazolo[1,5-a]pyrimidin-4(7H)-yl)acetamide], for which the IC50 in assay [1] and in assay [2] was less than 100 nM throughout.

In the case of `CCc1c(N2CCN(C(=O)c3cnn4cncc4c3O)CC2)c(=O)n2nc(C3=CCOCC3)nc2n1CC(=O)Nc1ccc(C(F)(F)F)cc1Cl` [Example 201, N-(2-Chloro-4-(trifluoromethyl)phenyl)-2-(2-(3,6-dihydro-2H-pyran-4-yl)-5-ethyl-6-(4-(4-hydroxyimidazo[1,5-b]pyridazine-3-carbonyl)piperazin-1-yl)-7-oxo-[1,2,4]triazolo[1,5-a]pyrimidin-4(7H)-yl)acetamide], the IC50 in assay [1] and in assay [2] was less than 100 nM in each case.

For `CCc1c(N2CCN(C(=O)c3ncn4cccc4c3O)CC2)c(=O)n2nc(C3=CCOCC3)nc2n1CC(=O)Nc1ccc(C(F)(F)F)cc1Cl` [Example 202, N-(2-Chloro-4-(trifluoromethyl)phenyl)-2-(2-(3,6-dihydro-2H-pyran-4-yl)-5-ethyl-6-(4-(4-hydroxypyrrolo[1,2-c]pyrimidine-3-carbonyl)piperazin-1-yl)-7-oxo-[1,2,4]triazolo[1,5-a]pyrimidin-4(7H)-yl)acetamide], the IC50 in assay [1] and in assay [2] was 100 to 1000 nM throughout.

With `CCc1c(N2CCN(C(=O)c3ncc4ccn(C)c4c3O)CC2)c(=O)n2nc(C3=CCOCC3)nc2n1CC(=O)Nc1ccc(C(F)(F)F)cc1Cl` [Example 203, N-(2-Chloro-4-(trifluoromethyl)phenyl)-2-(2-(3,6-dihydro-2H-pyran-4-yl)-5-ethyl-6-(4-(7-hydroxy-1-methyl-1H-pyrrolo[3,2-c]pyridine-6-carbonyl)piperazin-1-yl)-7-oxo-[1,2,4]triazolo[1,5-a]pyrimidin-4(7H)-yl)acetamide], the 50% inhibitory concentration (IC50) in assay [1] and in assay [2] was less than 100 nM in each case.

As for `CCc1c(N2CCN(C(=O)c3ncc4ccccc4c3O)CC2)c(=O)n2nc(C3=CCOCC3)nc2n1CC(=O)Nc1ccc(C(F)(F)F)cc1Cl` [Example 204, N-(2-Chloro-4-(trifluoromethyl)phenyl)-2-(2-(3,6-dihydro-2H-pyran-4-yl)-5-ethyl-6-(4-(4-hydroxyisoquinoline-3-carbonyl)piperazin-1-yl)-7-oxo-[1,2,4]triazolo[1,5-a]pyrimidin-4(7H)-yl)acetamide], the half-inhibitory concentration (IC50) in assay [1] and in assay [2] was less than 100 nM each time.

In the case of `CCc1c(N2CCN(C(=O)c3ncc4c(ccn4C)c3O)CC2)c(=O)n2nc(C3=CCOCC3)nc2n1CC(=O)Nc1ccc(C(F)(F)F)cc1Cl` [Example 205, N-(2-Chloro-4-(trifluoromethyl)phenyl)-2-(2-(3,6-dihydro-2H-pyran-4-yl)-5-ethyl-6-(4-(4-hydroxy-1-methyl-1H-pyrrolo[2,3-c]pyridine-5-carbonyl)piperazin-1-yl)-7-oxo-[1,2,4]triazolo[1,5-a]pyrimidin-4(7H)-yl)acetamide], the IC50 in assay [1] and in assay [2] was less than 100 nM throughout.

Take `CCc1c(N2CCN(C(=O)c3cnn4ccnc4c3O)CC2)c(=O)n2nc(C3=CCOCC3)nc2n1CC(=O)Nc1ccc(C(F)(F)F)cc1Cl` [Example 206, N-(2-Chloro-4-(trifluoromethyl)phenyl)-2-(2-(3,6-dihydro-2H-pyran-4-yl)-5-ethyl-6-(4-(8-hydroxyimidazo[1,2-b]pyridazine-7-carbonyl)piperazin-1-yl)-7-oxo-[1,2,4]triazolo[1,5-a]pyrimidin-4(7H)-yl)acetamide]: the IC50 in assay [1] and in assay [2] was less than 100 nM throughout.

For `CCc1c(N2CCN(C(=O)CNc3ncccn3)CC2)c(=O)n2nc(C3=CCOCC3)nc2n1CC(=O)Nc1ccc(C(F)(F)F)cc1Cl` [Example 207, N-(2-Chloro-4-(trifluoromethyl)phenyl)-2-(2-(3,6-dihydro-2H-pyran-4-yl)-5-ethyl-7-oxo-6-(4-(pyrimidin-2-ylglycyl)piperazin-1-yl)-[1,2,4]triazolo[1,5-a]pyrimidin-4(7H)-yl)acetamide], the half-inhibitory concentration (IC50) in assay [1] and in assay [2] was 100 to 1000 nM each time.

In the case of `CCc1c(N2CCN(C(=O)CNc3nc(=O)c4ccccc4[nH]3)CC2)c(=O)n2nc(C3=CCOCC3)nc2n1CC(=O)Nc1ccc(C(F)(F)F)cc1Cl` [Example 208, N-(2-Chloro-4-(trifluoromethyl)phenyl)-2-(2-(3,6-dihydro-2H-pyran-4-yl)-5-ethyl-7-oxo-6-(4-((4-oxo-1,4-dihydroquinazolin-2-yl)glycyl)piperazin-1-yl)-[1,2,4]triazolo[1,5-a]pyrimidin-4(7H)-yl)acetamide], the half-inhibitory concentration (IC50) in assay [1] and in assay [2] was less than 100 nM throughout.

With `[2H]C([2H])(NC(=O)c1cc(NC)ccc1F)C(=O)N1CCN(c2c(CC)n(CC(=O)Nc3ccc(C(F)(F)F)cc3F)c3nc(C4=CCOCC4)nn3c2=O)CC1` [Example 209, N-(2-(4-(2-(3,6-Dihydro-2H-pyran-4-yl)-5-ethyl-4-(2-((2-fluoro-4-(trifluoromethyl)phenyl)amino)-2-oxoethyl)-7-oxo-4,7-dihydro-[1,2,4]triazolo[1,5-a]pyrimidin-6-yl)piperazin-1-yl)-2-oxoethyl-1,1-d2)-2-fluoro-5-(methylamino)benzamide], the concentration for half-maximal inhibition (IC50) in assay [1] and in assay [2] was less than 100 nM throughout.

`CCc1c(N2CCN(C(=O)CNC(=O)c3ncnc(C)c3O)CC2)c(=O)n2nc(C3=CCOCC3)nc2n1CC(=O)Nc1ccc(C(F)(F)F)cc1Cl` [Example 210, N-(2-(4-(4-(2-((2-Chloro-4-(trifluoromethyl)phenyl)amino)-2-oxoethyl)-2-(3,6-dihydro-2H-pyran-4-yl)-5-ethyl-7-oxo-4,7-dihydro-[1,2,4]triazolo[1,5-a]pyrimidin-6-yl)piperazin-1-yl)-2-oxoethyl)-5-hydroxy-6-methylpyrimidine-4-carboxamide]: the IC50 in assay [1] and in assay [2] was less than 100 nM in each case.

For `CCc1c(N2CCN(C(=O)CNC(=O)c3cccc(F)c3O)CC2)c(=O)n2nc(C3=CCOCC3)nc2n1CC(=O)Nc1ccc(C(F)(F)F)cc1Cl` [Example 211, N-(2-(4-(4-(2-((2-Chloro-4-(trifluoromethyl)phenyl)amino)-2-oxoethyl)-2-(3,6-dihydro-2H-pyran-4-yl)-5-ethyl-7-oxo-4,7-dihydro-[1,2,4]triazolo[1,5-a]pyrimidin-6-yl)piperazin-1-yl)-2-oxoethyl)-3-fluoro-2-hydroxybenzamide], the IC50 in assay [1] and in assay [2] was less than 100 nM throughout.

Regarding `CCc1c(N2CCN(C(=O)CNC(=O)c3cc(N(C)C)ccc3F)CC2)c(=O)n2nc(C3=CCOCC3)nc2n1CC(=O)Nc1ccc(C(F)(F)F)cc1Cl` [Example 212, N-(2-(4-(4-(2-((2-Chloro-4-(trifluoromethyl)phenyl)amino)-2-oxoethyl)-2-(3,6-dihydro-2H-pyran-4-yl)-5-ethyl-7-oxo-4,7-dihydro-[1,2,4]triazolo[1,5-a]pyrimidin-6-yl)piperazin-1-yl)-2-oxoethyl)-5-(dimethylamino)-2-fluorobenzamide], the 50% inhibitory concentration (IC50) in assay [1] and in assay [2] was 100 to 1000 nM each time.

With `CCc1c(N2CCN(C(=O)CNC(=O)c3cc(NC)c(F)cc3F)CC2)c(=O)n2nc(C3=CCOCC3)nc2n1CC(=O)Nc1ccc(C(F)(F)F)cc1F` [Example 213, N-(2-(4-(2-(3,6-Dihydro-2H-pyran-4-yl)-5-ethyl-4-(2-((2-fluoro-4-(trifluoromethyl)phenyl)amino)-2-oxoethyl)-7-oxo-4,7-dihydro-[1,2,4]triazolo[1,5-a]pyrimidin-6-yl)piperazin-1-yl)-2-oxoethyl)-2,4-difluoro-5-(methylamino)benzamide], the concentration for half-maximal inhibition (IC50) in assay [1] and in assay [2] was less than 100 nM each time.

With `CCc1c(N2CCN(C(=O)CNC(=O)c3ccc(F)c(F)c3O)CC2)c(=O)n2nc(C3=CCOCC3)nc2n1CC(=O)Nc1ccc(C(F)(F)F)cc1F` [Example 214, N-(2-(4-(2-(3,6-Dihydro-2H-pyran-4-yl)-5-ethyl-4-(2-((2-fluoro-4-(trifluoromethyl)phenyl)amino)-2-oxoethyl)-7-oxo-4,7-dihydro-[1,2,4]triazolo[1,5-a]pyrimidin-6-yl)piperazin-1-yl)-2-oxoethyl)-3,4-difluoro-2-hydroxybenzamide], the IC50 in assay [1] and in assay [2] was less than 100 nM each time.

On to `CCc1c(N2CCN(C(=O)CNC(=O)c3cc(NC)ccc3F)CC2)c(=O)n2nc(C3=CCOCC3)nc2n1CC(=O)Nc1ccc(C(F)(F)F)cc1F` [Example 215, N-(2-(4-(2-(3,6-dihydro-2H-pyran-4-yl)-5-ethyl-4-(2-((2-fluoro-4-(trifluoromethyl)phenyl)amino)-2-oxoethyl)-7-oxo-4,7-dihydro-[1,2,4]triazolo[1,5-a]pyrimidin-6-yl)piperazin-1-yl)-2-oxoethyl)-2-fluoro-5-(methylamino)benzamide], for which the half-inhibitory concentration (IC50) in assay [1] and in assay [2] was less than 100 nM in each case.

Broadly, the IC50 is the concentration at which inhibition is half-maximal. A low value points to inhibition by little substance.
